Measurements from patent publication US20050214898A1, “Methods of carotenoid production in bacteria” (priority 2004, published 2005).
Where “and” joins values, the source holds several entries; their conditions need not be identical. Equal values may be shown once. Entries after “also recorded” stand apart in the source; their conditions may differ.

How the values were obtained:
F. multivorum ATCC 55238 = assay: Effect of salt supplementation of the basal medium on growth and carotenoid production (shake flask); format: cell-based, Flavobacterium multivorum; conditions: for effect on growth: basal medium supplemented with salt; for effect on the volumetric production of β-carotene / β-carotene as proportion of the total carotenoid content: basal medium supplemented with salt 250 mg/100 ml
Procedure: (§1) Pigment extraction from bacterial cells. One ml of culture broth was centrifuged at 5000 rpm for 10 min at 4° C. The supernatant was discarded and media components of the cell pellet were washed away by repeated suspension in sterile distilled water and centrifugation. The cell mass was subjected to sonication using a sonic dismembrator (Fisher Scientific, Model number F60) in the presence of 1 ml cold, oxygen-free methanol containing 0.01% butylated hydroxy toluene (BHT) (w/v) for 30 seconds (output power 5). Methanol extraction was repeated for complete extraction of carotenoids. The sonicated sample was centrifuged to remove the white cell pellet. The supernatant contains extracted carotenoids.
(§2) High performance liquid chromatography (HPLC). The pigments in methanol were dried by vacuum evaporation in a Speedvac Plus (SC 110, Savant) and re-dissolved in one ml of HPLC mobile phase (hexane: dichloromethane: methanol: N,N′-di-isopropylethylamine (80:19.2:0.7:0.1 v/v)). HPLC separation was carried out at a flow rate of 1.0 ml min^−1 on a cyano column (Microsorb 25 cm length×4.6 mm id, Rainin Instrument Co. Woburn, Mass., U.S.A.). The column was maintained at room temperature and the HPLC detector was operated at 450 nm. Peak identities were confirmed by photodiode-array spectra and by coelution with authentic standards as necessary.
Cell growth measurement. Cell growth was monitored by measurement of turbidity at […] with a UV-visible spectrophotometer (Smart Spec™ 3000, BioRad). Samples were suitably diluted (so as to have absorbance of between 0.2 to 0.8) with double distilled water. The absorbance was measured immediately at 500 nm. For cell dry weight (CDW) estimation, the 10 ml sample was centrifuged at 10,000 g for 10 minutes and washed twice with double distilled water by suspension and centrifugation. The supernatant was discarded and the cell pellet was taken to constant weight in an oven at 80° C.
Effect of salt supplementation. F. multivorum was studied for growth and carotenoid production in the liquid basal medium supplemented with the salts listed in Table 1 (see, FIG. 7) (250 mg/100 ml) to evaluate the effect of mineral salts. The F. multivorum cultures were grown in quadruplicate in shake flask cultures at 30° C. on a rotary shaker rotates at 250 rpm.

F. multivorum = assay: Effect of TCA cycle intermediates in the growth medium on zeaxanthin production; format: cell-based, Flavobacterium multivorum; conditions: growth medium supplemented with TCA intermediate
Procedure: as §1
as §2, with “nm.” for “nm. Peak identities were confirmed by photodiode-array spectra and by coelution with authentic standards as necessary.”
Media optimization for zeaxanthin production.

## O=C([O-])[O-].[Na+].[Na+] [sodium carbonate]
F. multivorum ATCC 55238
  effect on growth: minor inhibition on growth
  effect on the volumetric production of β-carotene: positive effect; also recorded: maximum stimulatory effect
  β-carotene as proportion of the total carotenoid content: 70 % (w/w) and 69 % (w/w)

## NC(N)=O [Urea, urea]
F. multivorum ATCC 55238
  effect on growth: minor inhibition on growth
  effect on the volumetric production of β-carotene: maximum stimulatory effect
  β-carotene as proportion of the total carotenoid content: 66 % (w/w)
F. multivorum ATCC 55238; listed as urea
  effect on the volumetric production of β-carotene: positive effect
  β-carotene as proportion of the total carotenoid content: 70 % (w/w)

## O=C(O)CC(O)C(=O)O (stereo not drawn) [malic acid]
F. multivorum
  effect on the volumetric production of zeaxanthin: maximum stimulatory effect

## [Ca+2].[Cl-].[Cl-] [calcium chloride]
F. multivorum ATCC 55238
  effect on growth: minor inhibition on growth
  effect on the volumetric production of β-carotene: maximum stimulatory effect
  β-carotene as proportion of the total carotenoid content: 52 % (w/w)

## O=C(O)CC(C(=O)O)C(O)C(=O)O (stereo not drawn) [Isocitric acid, isocitric acid]
F. multivorum
  effect on the volumetric production of zeaxanthin: maximum stimulatory effect

## [Cl-].[Li+] [Lithium chloride]
F. multivorum ATCC 55238; at 24 h of growth phase
  maximum β-carotene level (proportion of total carotenoid): 44 %, w/w
F. multivorum ATCC 55238; end of fermentation (48 h)
  β-carotene level (proportion of total carotenoid): 21 % (w/w)
